According to patent US8460904B2, “Method of producing reduced coenzyme Q10” (Zhejiang Zhongning Business Co., Ltd., priority 2008, dated 2013):

Key:
[1] = Water-solubility after phosphorylation; assay type: physicochemical; details: usable on injection
[2] = Stability / shelf life of the obtained reduced coenzyme Q10; assay type: physicochemical

COc1c(O)c(C)c(C/C=C(\C)CC/C=C(\C)CC/C=C(\C)CC/C=C(\C)CC/C=C(\C)CC/C=C(\C)CC/C=C(\C)CC/C=C(\C)CC/C=C(\C)CCC=C(C)C)c(O)c1OC [reduced coenzyme Q10]
water-solubility [1]: completely water soluble | shelf life ([2]; below 50° C.): over 2 years | stability in phosphoric acid solution ([2]; phosphoric acid solution of pH6.0-8.2): remains its qualities
